Consider one molecule from patent publication US20110306570A1, “Na/K-Atpase Expression as an Indicator for the Treatment of Cancer” (UNIVERSITY OF TOLEDO, priority 2008, published 2011).

“Also recorded” adds a separate entry of the source.

For one experiment, the system named is DU145 cells. Nature of the experiment: MTT cell growth assay, DU145 cells. Format: cell-based, human. The conditions noted are these: 24 h. The method, then: FIG. 1A: LLC-PK1 cells, BT20 cells, and DU145 cells were subcultured in 96-well plates (10,000 cells/well) and serum starved. […] Cells were solublized by adding 100 μl/well detergent provided by ATCC after 90 min of incubation and OD570 was then measured.
(§1) MTT assay for measuring cell proliferation: Cells were sub-cultured in 96 well plates at 10,000 cells/well in 100 μl culture medium. […] Ten μl MTT reagent (3-4,5-dimethylthiazol-2-yl)-2,5-diphenyltetrazolium bromide) was added to each well for 90 min. The formazan crystal was dissolved with detergent and the OD value was measured at 570 nm.
Background: Tetrazolium assays rely on reduction of a dye to a coloured formazan, in cell work by metabolically active cells.

In experiment [1] the test system is P-11 cells (control vector-transfected LLC-PK1). Nature of the experiment: MTT cell growth assay, control P-11 cells. Format: cell-based, pig. The note with it: ouabain 1 to 10 nM, 16 h. The method, then:
as §1

In the next experiment the test system is PY-17 cells. Briefly: MTT cell growth assay, Na/K-ATPase knock-down PY-17 cells. It counts as cell-based, pig. Here is the method: FIG. 3B: The Na/K-ATPase knock-down cells (PY17) were treated with different digitalis compounds and the cell growth was measured by MTT assay.
as §1

In the next experiment the test system is LLC-PK1 cells. Nature of the experiment: Cell growth curve (cell counting), LLC-PK1 cells. It counts as cell-based, pig. The conditions noted are these: 10 and 50 nM ouabain. The method, then: FIG. 1B: The above three cell lines were subcultured in 12-well plates (50,000 cells/well) and serum starved.
Cell growth curve and cell cycle measurement: Cells were sub-cultured in 12 well plates at 50,000/well in 1 ml culture medium for 24 h. […] At each indicated time point, three wells of control or treated cells were trypsinized and counted. For cell cycle measurement, cells were trypsinized and re-suspended in Citrate buffer (8.55% sucrose, 1.18% Na citrated, 5% DMSO, pH 7.6), and stained with propidium iodide (PI). The stained cells were then analyzed by Flow Cytometry.

The target of experiment [2] is T1, Na/K-ATPase α1 (Sus scrofa, UniProt P05024).
T1 construct: endogenous in cells; host or cells: LLC-PK1 (ATCC) and its caveolin-1 knock-down line C2-9
Nature of the experiment: Na/K-ATPase α1 expression by Western blot, LLC-PK1 cells. Format: cell-based, pig. Here is the method:
FIG. 7A: LLC-PK1 cells were pre-treated with 10 nM rapamycin or 50 μM LY294002 for 30 min. […] The cell lysates were analyzed for Na/K-ATPase α1 using Western blot.
Background: In western blotting, separated proteins are transferred to a membrane and probed.

The target of experiment [3] is T1, Na/K-ATPase α1. Nature of the experiment: Na/K-ATPase α1 expression, caveolin-1 knock-down C2-9 cells. Format: cell-based, pig. The conditions noted are these: C2-9 caveolin-1 knockdown cells, 5 and 10 nM ouabain, 72 h.
Experiment [4] addresses T2, Na/K-ATPase in the plasma membrane (Sus scrofa, UniProt P05024).
T2 construct: endogenous in cells; host or cells: LLC-PK1 (intact cells)
Nature of the experiment: 3H-ouabain binding after ouabain pre-treatment, LLC-PK1 cells. Format: cell-based, pig. The note with it: ouabain up to 10 nM, 72 h. Here is the method: (§2) The cells were washed and 3H-ouabain were performed as described herein. * p<0.05, ** p<0.01
(§3) To assess the functional consequence of these changes in α1 expression, the inventors measured the number of functional Na/K-ATPase in the plasma membrane.
(§4) Afterwards, cells were washed with serum-free medium and subjected to 3H-ouabain binding assay. Briefly, cells were incubated in K+-free Kreb's solution (NaCl 137 mM; KCl 0 mM; CaCl2 2.8 mM; NaH2PO4 0.6 mM; MgSO4 1.2 mM; dextrose; 10 mM; Tris 15 mM; pH7.4) for 15 min, and then exposed to 100 nM 3H-ouabain for 30 min at 37° C. At the end of incubation, the cells were washed 3 times with ice-cold K+-free Kreb's solution, solubilized in 0.1M NaOH-0.2% SDS, and counted in a scintillation counter for 3H-ouabain. […] Paralleled plates were used for counting cell numbers. 3H-ouabain binding data were calculated as binding sites per cell.

Experiment [5] deals with T1, Na/K-ATPase α1. Nature of the experiment: Na/K-ATPase α1 degradation with cycloheximide, LLC-PK1 cells. It counts as cell-based, pig. The note with it: cycloheximide pre-treatment, 10 nM ouabain for 6, 16 and 24 h. The text has this:
Cells without any treatment or only treated with CHX were used as control. The cells were collected at different time points and lysed in RIPA buffer. Equal amount of protein was loaded to analyze the Na/K-ATPase by Western blot. The representative Western blot and the quantification data from 4 experiments were shown. The Na/K-ATPase α1 amount at each time point was normalized against the control at the same time point.

For experiment [6], the target named is T3, Na/K-ATPase in the plasma membrane (Homo sapiens, UniProt P05023). Briefly: 3H-ouabain binding after ouabain pre-treatment, DU145 cells. More on the design: endogenous in cells. The note with it: ouabain 72 h. It counts as cell-based. The method, then:
as §2, §3, §4

Experiment [7] addresses Na/K-ATPase α1 (Homo sapiens, UniProt P05023). Briefly: Na/K-ATPase α1 endocytosis by confocal immunostaining, DU145 cells. It counts as cell-based. More on the design: endogenous in cells; host or cells: DU145. The conditions noted are these: 10 nM ouabain. Here is the method: Na/K-ATPase al was immunostained and visualized using Leica confocal microscope. The red arrows indicate the endocytosed vesicles containing Na/K-ATPase α1.
The cells were fixed with ice-cold methanol for 15 min and blocked with Signal Enhancer from Invitrogen. Monoclonal anti-Na/K-ATPase α1 antibody was then incubated with the cells overnight at 4° C. After 3 washes, a secondary Alexa 488-conjugated anti-mouse antibody was added and incubated for 2 h at room temperature. The coverslip was washed, mounted and imaged using a Leica confocal microscope.

Experiment [8] concerns the target T3, Na/K-ATPase in the plasma membrane. Nature of the experiment: 3H-ouabain binding after ouabain pre-treatment, BT20 cells. It counts as cell-based. More on the design: endogenous in cells; host or cells: BT20 (intact cells). The note with it: ouabain 72 h. Here is the method: as §2, §3, §4

As for `C[C@@H]1O[C@@H](O[C@H]2C[C@@H](O)[C@]3(CO)[C@H]4[C@H](O)C[C@]5(C)[C@@H](C6=CC(=O)OC6)CC[C@]5(O)[C@@H]4CC[C@]3(O)C2)[C@H](O)[C@H](O)[C@H]1O` [ouabain], the “effect on cell growth (MTT)” value in the experiment on DU145 cells (10-50 nM ouabain) was “significant inhibition of cell growth”; in [1], “stimulated the cell growth”. Moreover, the “stimulatory effect on cell growth (MTT)” value with DU145 cells (different concentrations of ouabain) was “failed to detect any stimulatory effect”. Further, in the experiment with PY-17 cells (PY17 cells, ouabain, 16 h), the “growth stimulation (MTT)” value is recorded as “No growth stimulation was detected”. In the experiment on PY-17 cells (PY-17 cells, 10 nM ouabain), the “reduction in cell growth (MTT)” value is listed as “more than 30%”. The “cell number as a function of time” value with LLC-PK1 cells is listed as “increased the number of LLC-PK1 cells in a time-dependent manner”. Also, the “α1 expression with ouabain in the presence of rapamycin” value at Na/K-ATPase α1 [2] (10 nM rapamycin pre-treatment, 10 nM ouabain 24 h) is given as “further decrease in the expression of al; also recorded: further decrease in the expression of a1”. The “Na/K-ATPase α1 expression” value on Na/K-ATPase α1 [2] (ouabain 24 h or 72 h exposure) is reported as “induction of α1 expression”. Also, on Na/K-ATPase α1 [3], the “ouabain-induced increases in α1 expression” value is “completely abolished ouabain-induced increases in α1 expression”. Also, the “number of 3H-ouabain binding sites (functional plasma membrane Na/K-ATPase)” value in [4] is “barely changed the number of binding sites”. Moreover, the “degradation of Na/K-ATPase α1 subunit” value at Na/K-ATPase α1 [5] is “more degradation of al subunit; also recorded: more degradation of the a1 subunit”. For the same molecule, the “surface active Na/K-ATPase (3H-ouabain binding)” value in experiment [6] and in experiment [8] was “significant decrease in surface active Na/K-ATPase” throughout. Moreover, on Na/K-ATPase α1 [7], the “endocytosis of Na/K-ATPase α1 (α1-positive vesicles)” value is given as “many al-positive vesicles were accumulated”.
